Patent publication US7074789B2, “Kinase inhibitors” (Amgen Inc., priority 1999, dated 2006)

Experiments:
Assay type in all cases: biochemical
Ret-1 = target: T1, Ret-1 (Homo sapiens, UniProt P07949); assay: Kinase inhibition assay (33P transfer), Ret; settings: Table 6, Ret-1 kinase inhibition class
T1 construct: Kinases are expressed as either kinase domains or full length constructs; made in house

FGFR1 = target: T2, FGFR1 (Homo sapiens, UniProt P11362); assay: Kinase inhibition assay (33P transfer), FGFR1; settings: read-out: FGFR1-1
T2 construct: Kinases are expressed as either kinase domains or full length constructs; made in house

Kdr = target: T3, Kdr (Homo sapiens, UniProt P35968); assay: Kinase inhibition assay (33P transfer), Kdr; settings: Table 3; read-out: KDR-1
T3 construct: Kinases are expressed as either kinase domains or full length constructs; made in house
Method in brief: (§1)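 Recombinant kinase-domain or full-length fusion proteins (GST or His tag) served as enzyme. Substrate poly(Glu,Tyr) 4:1 or poly(Arg,Ser) 3:1 was bound to the plate; transferred 33P was read by liquid scintillation following acid washing.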

Lyn = target: T4, Lyn (Homo sapiens, UniProt P07948); assay: Kinase inhibition assay (33P transfer), Lyn; settings: Table 6, Lyn-1 kinase inhibition class
T4 construct: Kinases are expressed as either kinase domains or full length constructs; made in house
Method in brief: (§2)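 Recombinant kinase domains or full-length GST- or His-tagged constructs, from E. coli or baculovirus/High Five cells, sometimes with regulatory polypeptides. Transfer of 33P from ATP to plate-bound poly(Glu,Tyr) 4:1 or poly(Arg,Ser) 3:1 counted by liquid scintillation after phosphoric acid wash; IC50 is the concentration halving incorporation.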

EPHB4 = target: T5, EPHB4 (Homo sapiens, UniProt P54760); assay: Kinase inhibition assay (33P transfer), EPHB4; settings: read-out: EPHB4-1
T5 construct: Kinases are expressed as either kinase domains or full length constructs; made in house
T5 sequence (P54760 16-987): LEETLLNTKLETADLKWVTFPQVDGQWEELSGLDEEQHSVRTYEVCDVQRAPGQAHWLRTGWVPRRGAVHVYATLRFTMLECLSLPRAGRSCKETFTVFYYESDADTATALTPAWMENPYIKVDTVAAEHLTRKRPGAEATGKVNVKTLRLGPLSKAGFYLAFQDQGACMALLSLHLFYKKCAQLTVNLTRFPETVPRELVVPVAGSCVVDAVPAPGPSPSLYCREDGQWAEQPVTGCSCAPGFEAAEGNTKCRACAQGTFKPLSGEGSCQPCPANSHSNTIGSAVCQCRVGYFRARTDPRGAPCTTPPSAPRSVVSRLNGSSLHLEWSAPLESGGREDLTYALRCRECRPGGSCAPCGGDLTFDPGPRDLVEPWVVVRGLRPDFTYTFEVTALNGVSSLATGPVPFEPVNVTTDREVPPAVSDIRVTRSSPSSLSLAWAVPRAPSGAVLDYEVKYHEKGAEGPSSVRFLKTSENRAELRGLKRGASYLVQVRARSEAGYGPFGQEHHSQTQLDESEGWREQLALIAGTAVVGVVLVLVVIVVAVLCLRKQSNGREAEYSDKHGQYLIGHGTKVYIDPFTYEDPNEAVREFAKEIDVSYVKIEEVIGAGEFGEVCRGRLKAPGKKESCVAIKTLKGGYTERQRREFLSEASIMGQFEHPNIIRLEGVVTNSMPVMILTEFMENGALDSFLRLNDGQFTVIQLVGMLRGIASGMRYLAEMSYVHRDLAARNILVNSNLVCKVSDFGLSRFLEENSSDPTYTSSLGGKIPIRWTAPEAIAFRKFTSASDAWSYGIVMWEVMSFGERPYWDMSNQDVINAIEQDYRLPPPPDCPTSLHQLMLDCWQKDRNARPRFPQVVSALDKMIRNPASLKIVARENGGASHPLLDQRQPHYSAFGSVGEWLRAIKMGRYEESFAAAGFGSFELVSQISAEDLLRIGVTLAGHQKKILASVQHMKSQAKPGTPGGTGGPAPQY

Hck-1 = target: T6, Hck-1 (Homo sapiens, UniProt P08631); assay: Kinase inhibition assay (33P transfer), Hck; settings: Table 6, Hck-1 kinase inhibition class
T6 construct: Kinases are expressed as either kinase domains or full length constructs; made in house

Tek = target: T7, Tek (Homo sapiens, UniProt Q02763); assay: Kinase inhibition assay (33P transfer), Tek; settings: read-out: Tek-1
T7 construct: Kinases are expressed as either kinase domains or full length constructs; made in house
Method in brief: as §2

Zap-70 = target: T8, Zap-70 (Homo sapiens, UniProt P43403); assay: Kinase inhibition assay (33P transfer), Zap-70; settings: Table 3; read-out: Zap-1
T8 construct: Kinases are expressed as either kinase domains or full length constructs; made in house
T8 sequence (P43403 1-619): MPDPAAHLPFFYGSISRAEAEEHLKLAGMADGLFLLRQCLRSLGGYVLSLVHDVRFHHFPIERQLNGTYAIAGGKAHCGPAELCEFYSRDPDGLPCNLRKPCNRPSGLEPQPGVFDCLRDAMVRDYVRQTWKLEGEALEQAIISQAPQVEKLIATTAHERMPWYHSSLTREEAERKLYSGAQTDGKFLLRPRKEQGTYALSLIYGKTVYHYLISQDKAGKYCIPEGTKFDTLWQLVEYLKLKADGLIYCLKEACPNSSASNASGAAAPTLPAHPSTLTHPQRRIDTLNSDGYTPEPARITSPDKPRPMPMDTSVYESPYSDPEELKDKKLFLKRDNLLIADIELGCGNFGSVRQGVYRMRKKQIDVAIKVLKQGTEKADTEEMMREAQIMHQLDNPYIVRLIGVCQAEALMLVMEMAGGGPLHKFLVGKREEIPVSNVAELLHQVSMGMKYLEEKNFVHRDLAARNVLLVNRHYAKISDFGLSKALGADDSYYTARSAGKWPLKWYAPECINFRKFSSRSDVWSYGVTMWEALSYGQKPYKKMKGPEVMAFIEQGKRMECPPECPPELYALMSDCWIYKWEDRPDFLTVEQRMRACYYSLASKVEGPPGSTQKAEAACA
Method in brief: as §1

c-Met = target: T9, c-Met (Homo sapiens, UniProt P08581); assay: Kinase inhibition assay (33P transfer), c-Met; settings: Table 2, kinase inhibition class; read-out: Met-1
T9 construct: Kinases are expressed as either kinase domains or full length constructs; made in house
Method in brief: as §2

T1 sequence (P07949 29-1114): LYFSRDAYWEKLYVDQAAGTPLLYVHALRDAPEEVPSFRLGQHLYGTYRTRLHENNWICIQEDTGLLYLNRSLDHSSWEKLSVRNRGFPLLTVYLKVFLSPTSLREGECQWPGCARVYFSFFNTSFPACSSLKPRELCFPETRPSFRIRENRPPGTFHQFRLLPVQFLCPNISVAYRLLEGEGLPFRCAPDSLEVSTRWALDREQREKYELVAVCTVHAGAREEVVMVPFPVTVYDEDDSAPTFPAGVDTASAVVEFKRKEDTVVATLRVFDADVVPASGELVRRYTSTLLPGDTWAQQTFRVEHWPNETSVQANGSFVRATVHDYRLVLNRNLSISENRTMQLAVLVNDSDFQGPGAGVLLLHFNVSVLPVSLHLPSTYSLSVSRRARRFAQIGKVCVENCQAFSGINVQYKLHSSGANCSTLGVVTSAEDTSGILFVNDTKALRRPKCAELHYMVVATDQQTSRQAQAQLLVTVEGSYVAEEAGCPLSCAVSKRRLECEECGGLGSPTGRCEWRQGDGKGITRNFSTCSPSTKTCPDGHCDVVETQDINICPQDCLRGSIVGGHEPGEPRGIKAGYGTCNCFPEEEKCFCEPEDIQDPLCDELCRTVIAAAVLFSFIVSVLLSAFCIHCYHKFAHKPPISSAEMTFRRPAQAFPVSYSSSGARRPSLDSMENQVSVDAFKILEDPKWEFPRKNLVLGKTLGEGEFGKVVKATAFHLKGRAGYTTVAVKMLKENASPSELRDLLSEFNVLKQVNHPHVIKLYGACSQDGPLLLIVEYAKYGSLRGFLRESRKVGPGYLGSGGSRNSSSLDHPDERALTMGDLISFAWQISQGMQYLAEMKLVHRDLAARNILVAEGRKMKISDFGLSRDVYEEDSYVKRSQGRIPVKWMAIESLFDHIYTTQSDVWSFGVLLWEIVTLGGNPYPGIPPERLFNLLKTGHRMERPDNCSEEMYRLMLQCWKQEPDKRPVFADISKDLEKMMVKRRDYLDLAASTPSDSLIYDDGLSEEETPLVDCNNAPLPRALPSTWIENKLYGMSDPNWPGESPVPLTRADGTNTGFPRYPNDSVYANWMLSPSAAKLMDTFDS
T2 sequence (P11362 22-822, species assumed): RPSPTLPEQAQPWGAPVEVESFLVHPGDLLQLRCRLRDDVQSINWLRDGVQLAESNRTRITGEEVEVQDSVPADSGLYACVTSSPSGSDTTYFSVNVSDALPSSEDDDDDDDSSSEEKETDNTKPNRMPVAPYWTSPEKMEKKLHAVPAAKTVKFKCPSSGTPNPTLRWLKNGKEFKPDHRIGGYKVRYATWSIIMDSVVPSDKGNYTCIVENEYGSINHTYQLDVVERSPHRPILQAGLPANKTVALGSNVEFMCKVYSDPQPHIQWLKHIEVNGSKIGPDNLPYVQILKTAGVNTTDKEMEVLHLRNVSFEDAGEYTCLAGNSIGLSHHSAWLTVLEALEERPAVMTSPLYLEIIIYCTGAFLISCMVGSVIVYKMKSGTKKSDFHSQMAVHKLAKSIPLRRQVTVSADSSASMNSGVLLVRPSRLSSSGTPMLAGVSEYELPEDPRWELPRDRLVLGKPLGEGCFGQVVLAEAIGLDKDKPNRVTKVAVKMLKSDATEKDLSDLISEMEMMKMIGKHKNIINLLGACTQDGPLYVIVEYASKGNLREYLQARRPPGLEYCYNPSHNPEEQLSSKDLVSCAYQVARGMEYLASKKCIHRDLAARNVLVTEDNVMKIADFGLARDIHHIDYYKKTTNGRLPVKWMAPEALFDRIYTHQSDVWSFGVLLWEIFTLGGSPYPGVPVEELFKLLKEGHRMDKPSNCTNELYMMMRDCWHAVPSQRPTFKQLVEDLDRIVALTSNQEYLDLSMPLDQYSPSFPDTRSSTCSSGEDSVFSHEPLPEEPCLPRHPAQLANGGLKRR
T3 sequence (P35968 20-1356, species assumed): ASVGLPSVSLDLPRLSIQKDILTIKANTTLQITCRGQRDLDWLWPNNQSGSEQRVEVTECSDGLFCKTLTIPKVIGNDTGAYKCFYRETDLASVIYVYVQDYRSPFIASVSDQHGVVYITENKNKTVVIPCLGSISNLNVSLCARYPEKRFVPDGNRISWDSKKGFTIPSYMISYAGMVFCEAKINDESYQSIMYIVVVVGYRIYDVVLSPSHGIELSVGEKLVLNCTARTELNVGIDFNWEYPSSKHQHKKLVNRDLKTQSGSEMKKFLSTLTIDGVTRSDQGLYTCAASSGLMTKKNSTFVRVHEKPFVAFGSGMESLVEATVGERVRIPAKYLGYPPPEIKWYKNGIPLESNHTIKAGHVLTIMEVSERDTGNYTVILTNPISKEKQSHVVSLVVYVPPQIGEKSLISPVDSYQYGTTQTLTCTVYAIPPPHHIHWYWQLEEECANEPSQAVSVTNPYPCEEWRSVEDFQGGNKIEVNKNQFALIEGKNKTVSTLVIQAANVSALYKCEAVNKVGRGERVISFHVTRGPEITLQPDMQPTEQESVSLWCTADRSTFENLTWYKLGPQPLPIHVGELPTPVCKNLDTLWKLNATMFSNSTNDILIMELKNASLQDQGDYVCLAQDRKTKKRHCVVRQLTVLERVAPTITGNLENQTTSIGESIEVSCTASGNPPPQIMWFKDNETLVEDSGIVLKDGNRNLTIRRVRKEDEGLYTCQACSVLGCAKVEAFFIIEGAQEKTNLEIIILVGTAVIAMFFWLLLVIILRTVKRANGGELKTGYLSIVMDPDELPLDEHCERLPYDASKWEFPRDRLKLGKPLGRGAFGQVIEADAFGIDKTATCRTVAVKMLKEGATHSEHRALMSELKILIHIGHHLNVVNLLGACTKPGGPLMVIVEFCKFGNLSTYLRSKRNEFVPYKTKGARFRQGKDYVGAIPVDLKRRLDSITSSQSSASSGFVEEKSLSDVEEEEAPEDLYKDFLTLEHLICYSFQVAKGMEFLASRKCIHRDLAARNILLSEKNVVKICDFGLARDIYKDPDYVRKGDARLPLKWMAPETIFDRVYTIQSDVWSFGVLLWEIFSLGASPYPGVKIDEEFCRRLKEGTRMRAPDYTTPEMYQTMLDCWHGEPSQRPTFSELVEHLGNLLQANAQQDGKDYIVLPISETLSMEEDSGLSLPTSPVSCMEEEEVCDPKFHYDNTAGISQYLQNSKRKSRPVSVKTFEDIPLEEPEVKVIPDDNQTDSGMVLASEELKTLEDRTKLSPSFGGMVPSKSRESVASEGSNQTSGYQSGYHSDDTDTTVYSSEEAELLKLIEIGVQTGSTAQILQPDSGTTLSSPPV
T4 sequence (P07948 whole entry, species assumed, the tested form may be a part): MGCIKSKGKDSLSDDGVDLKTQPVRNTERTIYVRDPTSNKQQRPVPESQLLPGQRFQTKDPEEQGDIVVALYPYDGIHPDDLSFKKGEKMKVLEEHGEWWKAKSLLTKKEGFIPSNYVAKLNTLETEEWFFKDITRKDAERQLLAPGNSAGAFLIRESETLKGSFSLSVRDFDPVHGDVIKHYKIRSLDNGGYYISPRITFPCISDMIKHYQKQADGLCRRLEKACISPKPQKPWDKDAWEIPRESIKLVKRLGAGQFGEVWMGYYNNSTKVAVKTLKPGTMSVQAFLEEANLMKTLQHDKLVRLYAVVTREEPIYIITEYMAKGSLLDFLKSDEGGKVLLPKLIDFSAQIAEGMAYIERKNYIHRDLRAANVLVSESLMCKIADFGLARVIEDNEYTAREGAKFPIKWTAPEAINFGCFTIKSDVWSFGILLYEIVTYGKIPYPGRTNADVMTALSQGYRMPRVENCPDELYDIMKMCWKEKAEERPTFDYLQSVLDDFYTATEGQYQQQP
T9 sequence (P08581 25-1390): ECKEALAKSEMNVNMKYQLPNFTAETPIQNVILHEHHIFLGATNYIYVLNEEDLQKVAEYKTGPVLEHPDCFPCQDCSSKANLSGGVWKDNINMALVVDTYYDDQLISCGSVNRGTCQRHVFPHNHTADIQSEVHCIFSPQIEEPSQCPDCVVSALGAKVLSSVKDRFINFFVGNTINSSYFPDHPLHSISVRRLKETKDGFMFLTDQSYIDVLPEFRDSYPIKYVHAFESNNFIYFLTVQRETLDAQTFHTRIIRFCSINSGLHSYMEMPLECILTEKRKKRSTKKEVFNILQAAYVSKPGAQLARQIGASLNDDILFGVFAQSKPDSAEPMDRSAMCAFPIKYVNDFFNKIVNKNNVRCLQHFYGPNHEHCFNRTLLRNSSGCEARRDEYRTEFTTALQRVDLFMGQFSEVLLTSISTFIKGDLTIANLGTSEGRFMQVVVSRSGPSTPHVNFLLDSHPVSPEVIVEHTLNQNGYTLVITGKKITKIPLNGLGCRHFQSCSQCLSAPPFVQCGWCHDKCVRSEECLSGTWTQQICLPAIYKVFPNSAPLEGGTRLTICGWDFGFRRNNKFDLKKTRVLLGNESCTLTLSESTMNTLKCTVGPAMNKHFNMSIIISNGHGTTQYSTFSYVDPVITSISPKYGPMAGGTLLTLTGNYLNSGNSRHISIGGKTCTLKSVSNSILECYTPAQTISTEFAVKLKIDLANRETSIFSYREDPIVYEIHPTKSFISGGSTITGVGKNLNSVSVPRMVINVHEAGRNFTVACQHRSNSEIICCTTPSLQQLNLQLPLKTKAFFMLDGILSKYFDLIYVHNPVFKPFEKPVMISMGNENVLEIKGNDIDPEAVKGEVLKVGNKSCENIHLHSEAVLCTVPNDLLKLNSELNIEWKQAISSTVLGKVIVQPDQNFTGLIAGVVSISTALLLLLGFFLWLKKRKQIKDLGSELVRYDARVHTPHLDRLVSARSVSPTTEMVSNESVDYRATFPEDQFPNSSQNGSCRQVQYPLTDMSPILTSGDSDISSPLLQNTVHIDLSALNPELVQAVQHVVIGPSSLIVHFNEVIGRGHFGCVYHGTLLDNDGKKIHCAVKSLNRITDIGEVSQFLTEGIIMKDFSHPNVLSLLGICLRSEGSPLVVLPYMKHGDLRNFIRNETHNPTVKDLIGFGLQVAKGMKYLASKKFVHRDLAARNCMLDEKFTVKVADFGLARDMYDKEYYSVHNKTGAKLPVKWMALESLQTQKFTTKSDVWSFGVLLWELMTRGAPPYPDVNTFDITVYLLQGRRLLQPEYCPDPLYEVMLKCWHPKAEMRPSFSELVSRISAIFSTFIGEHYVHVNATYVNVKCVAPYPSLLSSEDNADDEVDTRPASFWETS

Structure (SMILES)	IC50 (Ret-1)	IC50 (FGFR1)	IC50 (Kdr)	IC50 (Lyn)	IC50 (EPHB4)	IC50 (Hck-1)	IC50 (Tek)	IC50 (Zap-70)	IC50 (c-Met)
COCCOc1cc(Nc2ncnc(Nc3ccc(C)c(O)c3)n2)ccc1OC [Compound 127]	< 1.01 µM	1.01 to 6.04 µM	< 1.01 µM	< 1.01 µM	8.81 to 11.3 µM	1.01 to 6.04 µM	> 11.3 µM	> 11.3 µM	> 11.3 µM
COc1ccc(Nc2ncnc(Nc3ccc(C)c(O)c3)n2)cc1OC [Compound 119]	< 1.13 µM	1.13 to 6.79 µM	< 1.13 µM	1.13 to 6.79 µM	> 12.7 µM	> 12.7 µM	> 12.7 µM	> 12.7 µM	> 12.7 µM
Cc1cccc(Nc2ncnc(Nc3ccc(O)cc3)n2)c1 [Compound 107]	1.36 to 8.18 µM	1.36 to 8.18 µM	1.36 to 8.18 µM	< 1.36 µM	1.36 to 8.18 µM	11.9 to 15.3 µM	> 15.3 µM	> 15.3 µM	8.18 to 11.9 µM
COc1cc(Nc2ncnc(Nc3ccc(C)c(F)c3)n2)cc(OC)c1OC [Compound 300]	1.04 to 6.23 µM	6.23 to 9.08 µM	< 1.04 µM	< 1.04 µM	1.04 to 6.23 µM	> 11.7 µM	9.08 to 11.7 µM	> 11.7 µM	6.23 to 9.08 µM
COc1cc(Nc2ncnc(Nc3ccc(Br)cc3F)n2)cc(OC)c1OC [Compound 41]	< 0.888 µM	5.33 to 7.77 µM	< 0.888 µM	< 0.888 µM	0.888 to 5.33 µM	> 9.99 µM	7.77 to 9.99 µM	> 9.99 µM	5.33 to 7.77 µM
COc1cc(Nc2ncnc(Nc3ccc(C)c(NS(C)(=O)=O)c3)n2)cc(OC)c1OC [Compound 305]	< 0.869 µM	0.869 to 5.21 µM	< 0.869 µM	< 0.869 µM	0.869 to 5.21 µM	5.21 to 7.6 µM	> 9.77 µM	> 9.77 µM	7.6 to 9.77 µM
COc1cc(Nc2ncnc(N(C/C=C/c3ccccc3)c3ccc(Cl)cc3)n2)cc(OC)c1OC [Compound 56]	> 8.93 µM	4.76 to 6.94 µM	0.794 to 4.76 µM	0.794 to 4.76 µM	> 8.93 µM	> 8.93 µM	> 8.93 µM	> 8.93 µM	> 8.93 µM
COc1ccc(Nc2ncnc(-n3c(N)nc4ccccc43)n2)cc1OC [Compound 285]	6.6 to 9.63 µM	9.63 to 12.4 µM	< 1.1 µM	> 12.4 µM	> 12.4 µM	> 12.4 µM	> 12.4 µM	> 12.4 µM	> 12.4 µM
COc1cc(Nc2ncnc(Nc3cccc(F)c3)n2)cc(OC)c1OC [Compound 304]	< 1.08 µM	1.08 to 6.46 µM	< 1.08 µM	< 1.08 µM	1.08 to 6.46 µM	6.46 to 9.42 µM	> 12.1 µM	> 12.1 µM	1.08 to 6.46 µM
COCCOc1ccc(Nc2ncnc(Nc3ccc(C)c(O)c3)n2)cc1OCCOC [Compound 125]	0.906 to 5.44 µM	0.906 to 5.44 µM	< 0.906 µM	< 0.906 µM	> 10.2 µM	7.93 to 10.2 µM	> 10.2 µM	> 10.2 µM	> 10.2 µM
COc1cc(Nc2ncnc(N3CCCc4ccccc43)n2)cc(OC)c1OC [Compound 609]	< 1.02 µM	< 1.02 µM	< 1.02 µM	< 1.02 µM	> 11.4 µM	> 11.4 µM	8.9 to 11.4 µM	> 11.4 µM	1.02 to 6.1 µM
COc1cc(Nc2ncnc(Nc3ccc(C)cc3F)n2)cc(OC)c1OC [Compound 937]	< 1.04 µM	> 11.7 µM	< 1.04 µM	< 1.04 µM	1.04 to 6.23 µM	> 11.7 µM	> 11.7 µM	> 11.7 µM	6.23 to 9.08 µM
COc1cc(Nc2ncnc(-n3ncc4ccccc43)n2)cc(OC)c1OC [Compound 240]	6.34 to 9.25 µM	6.34 to 9.25 µM	1.06 to 6.34 µM	1.06 to 6.34 µM	> 11.9 µM	> 11.9 µM	> 11.9 µM	> 11.9 µM	> 11.9 µM
